Read-outs that look alike come from different tables or passages of the source.
Columns and labels:
[1] = target: EGFR IgG binding to the EGFR antigen; assay: ELISA competitive inhibition of EGFR IgG binding to EGFR antigen; details: for IC50: read-out: IC50 for peptide inhibition of EGFR IgG binding to EGFR antigen, Table 13
EGFR IgG = assay: ELISA binding of peptides to EGFR IgG; details: Table 12; antibody concentration for half maximal signal; read-out: EC50 for peptide binding to EGFR IgG
EGFR Fab = assay: ELISA binding of peptides to EGFR Fab; details: read-out: EC50 for peptide binding to αEGFR Fab
[2] = target: EGFR Fab binding to the EGFR antigen; assay: ELISA competitive inhibition of EGFR Fab binding to EGFR antigen; details: for IC50: read-out: IC50 for peptide inhibition of αEGFR Fab binding to EGFR antigen, Table 27, peptide-8 optimization; for potency as peptide mask (in words): binding and inhibition data relative to peptide-8
[3] = Table 25, peptide-8 optimization

Structure (SMILES) | IC50 [1] | EC50 (EGFR IgG) | IC50 [2] | EC50 (EGFR Fab; [3]) | further results
CSCC[C@@H]1NC(=O)[C@H](CC(C)C)NC(=O)[C@H](CO)NC(=O)[C@H](CCCNC(=N)N)NC(=O)[C@@H](NC(=O)[C@H](Cc2c[nH]c3ccccc23)NC(=O)[C@@H](N)CC(=O)O)CSSC[C@@H](C(=O)N2CCC[C@H]2C(=O)O)NC(=O)[C@H](CC(C)C)NC(=O)[C@H](CC(=O)O)NC(=O)[C@H]([C@@H](C)O)NC(=O)[C@H](Cc2ccc(O)cc2)NC(=O)[C@H](CO)NC1=O [Peptide-1] | > 0.3 µM | 0.052 µM | – | – | –
CC[C@H](C)[C@@H]1NC(=O)[C@H](CC(C)C)NC(=O)[C@H](Cc2c[nH]cn2)NC(=O)[C@H](C)NC(=O)[C@H](CC(=O)O)NC(=O)[C@H](C)NC(=O)[C@@H](NC(=O)[C@H](CO)NC(=O)[C@@H](N)[C@@H](C)O)CSSC[C@@H](C(=O)N[C@@H](CO)C(=O)O)NC(=O)[C@H](CO)NC(=O)[C@@H]2CCCN2C(=O)[C@H](C)NC1=O [Peptide-2] | > 0.3 µM | 0.084 µM | – | – | –
CC(C)[C@@H]1NC(=O)[C@H](CCCNC(=N)N)NC(=O)[C@H](CC(=O)O)NC(=O)[C@H](Cc2c[nH]c3ccccc23)NC(=O)[C@H](CCC(N)=O)NC(=O)[C@@H](NC(=O)[C@@H](N)CC(N)=O)CSSC[C@@H](C(=O)N[C@@H](CO)C(=O)O)NC(=O)[C@H](C)NC(=O)[C@H](Cc2ccc(O)cc2)NC(=O)[C@H]([C@@H](C)O)NC(=O)[C@H](Cc2c[nH]cn2)NC(=O)[C@H](CCC(=O)O)NC1=O [Peptide-3] | > 0.3 µM | 0.413 µM | – | – | –
CSCC[C@@H]1NC(=O)[C@H](Cc2c[nH]cn2)NC(=O)[C@H](CO)NC(=O)CNC(=O)[C@H](CC(=O)O)NC(=O)[C@H](Cc2c[nH]cn2)NC(=O)[C@@H](NC(=O)[C@H](CO)NC(=O)[C@@H](NC(=O)[C@@H](N)Cc2c[nH]c3ccccc23)C(C)C)CSSC[C@@H](C(=O)N[C@@H](Cc2ccccc2)C(=O)N[C@@H](Cc2c[nH]cn2)C(=O)O)NC(=O)[C@H]([C@@H](C)O)NC1=O [Peptide-4] | > 0.3 µM | – | – | – | –
CSCC[C@H](N)C(=O)N[C@@H](CC(N)=O)C(=O)N[C@H]1CSSC[C@@H](C(=O)N[C@@H](CC(C)C)C(=O)N[C@H](C(=O)O)C(C)C)NC(=O)[C@H](Cc2ccc(O)cc2)NC(=O)[C@H](CCC(=O)O)NC(=O)[C@H](C(C)C)NC(=O)[C@H](Cc2c[nH]c3ccccc23)NC(=O)[C@H](CC(C)C)NC(=O)[C@H](CCCNC(=N)N)NC(=O)[C@H](CC(N)=O)NC(=O)[C@H](CC(C)C)NC1=O [Peptide-5] | > 0.3 µM | 0.002 µM | – | – | –
CC(C)[C@@H]1NC(=O)[C@H](Cc2c[nH]c3ccccc23)NC(=O)[C@H]([C@@H](C)O)NC(=O)[C@H](CC(N)=O)NC(=O)[C@H](CC(=O)O)NC(=O)[C@H](CCC(N)=O)NC(=O)CNC(=O)[C@@H](NC(=O)[C@@H](N)Cc2ccc(O)cc2)CSSC[C@@H](C(=O)N[C@@H](Cc2ccccc2)C(=O)O)NC(=O)CNC(=O)[C@H](CCC(=O)O)NC(=O)[C@H](CCCNC(=N)N)NC1=O [Peptide-6] | – | 0.0003 µM | – | – | inhibiting EGFR IgG binding to the EGFR antigen (in words) ([1]; among peptide-1 to peptide-6): most effective at inhibiting EGFR IgG binding to the EGFR antigen; EC50 (EGFR Fab; Table 16): 0.458 µM
CC[C@H](C)[C@@H]1NC(=O)[C@@H]2CCCN2C(=O)[C@H](CCCCN)NC(=O)[C@H](C)NC(=O)[C@H](CC(C)C)NC(=O)[C@H](CC(=O)O)NC(=O)[C@H](Cc2ccc(O)cc2)NC(=O)[C@H](Cc2c[nH]cn2)NC(=O)[C@H](CO)NC(=O)[C@H](CC(N)=O)NC(=O)[C@@H](NC(=O)[C@@H]2CCCN2)CSSC[C@@H](C(=O)N[C@H](C(=O)O)[C@@H](C)O)NC1=O [Peptide-43] | – | – | 4.23 µM | 0.186 µM | –
CC[C@H](C)[C@@H]1NC(=O)[C@H](CC(=O)O)NC(=O)[C@H](Cc2ccccc2)NC(=O)[C@H](Cc2c[nH]cn2)NC(=O)[C@H](CO)NC(=O)[C@H](CC(N)=O)NC(=O)[C@@H](NC(=O)[C@@H]2CCCN2)CSSC[C@@H](C(=O)N[C@@H](CC(C)C)C(=O)O)NC(=O)[C@H]([C@@H](C)CC)NC(=O)[C@@H]2CCCN2C(=O)[C@H](CCCCN)NC(=O)[C@H](C)NC1=O [Peptide-44] | – | – | 6.57 µM | 0.341 µM | –
CC[C@H](C)[C@@H]1NC(=O)[C@@H]2CCCN2C(=O)[C@H](CCCCN)NC(=O)[C@H](C)NC(=O)[C@@H]2CCCN2C(=O)[C@H](CC(=O)O)NC(=O)[C@H](CC(N)=O)NC(=O)[C@H](Cc2c[nH]cn2)NC(=O)[C@H](Cc2ccc(O)cc2)NC(=O)[C@H](C)NC(=O)[C@@H](NC(=O)[C@@H]2CCCN2)CSSC[C@@H](C(=O)N[C@@H](CO)C(=O)O)NC1=O [Peptide-45, PCAYHNDPAKPICS] | – | – | 0.543 µM | 0.0103 µM | potency as peptide mask (in words) [2]: more potent peptide masks
CC[C@H](C)[C@@H]1NC(=O)[C@@H]2CCCN2C(=O)[C@H](CCCCN)NC(=O)[C@H](C)NC(=O)[C@@H]2CCCN2C(=O)[C@H](CC(=O)O)NC(=O)[C@H](Cc2ccccc2)NC(=O)[C@H](Cc2c[nH]cn2)NC(=O)[C@H](Cc2ccccc2)NC(=O)[C@H](CC(C)C)NC(=O)[C@@H](NC(=O)[C@@H]2CCCN2)CSSC[C@@H](C(=O)N[C@@H](CO)C(=O)O)NC1=O [Peptide-46, PCLFHFDPAKPICS] | – | – | 0.3 µM | 0.0049 µM | potency as peptide mask (in words) [2]: more potent peptide masks
